Experimental data: BindingDB's records for doi:10.1021/bi9016928 (Uppsala University, 2009)
Starred links: 1 amine or outer side, 2 acyl side, 3 side chain; linkers in the order of their positions; H or OH if unused. Non-standard residues stand in square brackets, D forms with d. Residues, ends and D or L forms follow the SMILES beside them. ξ: configuration not given here. Dip = N[C@H](C(=O)O)C(c1ccccc1)c1ccccc1; 2Nal = N[C@@H](Cc1ccc2ccccc2c1)C(=O)O; Cha = N[C@@H](CC1CCCCC1)C(=O)O; Ile(3ξ) = CCC(C)[C@H](N)C(=O)O; Chg = N[C@H](C(=O)O)C1CCCCC1; Suc = O=C(CCC(=O)[*:2])[*:1]

biological target: T1, Genome polyprotein (Hepacivirus hominis, UniProt Q04045); assay: Competitive Inhibition Assay
T1 sequence (Q04045 whole entry): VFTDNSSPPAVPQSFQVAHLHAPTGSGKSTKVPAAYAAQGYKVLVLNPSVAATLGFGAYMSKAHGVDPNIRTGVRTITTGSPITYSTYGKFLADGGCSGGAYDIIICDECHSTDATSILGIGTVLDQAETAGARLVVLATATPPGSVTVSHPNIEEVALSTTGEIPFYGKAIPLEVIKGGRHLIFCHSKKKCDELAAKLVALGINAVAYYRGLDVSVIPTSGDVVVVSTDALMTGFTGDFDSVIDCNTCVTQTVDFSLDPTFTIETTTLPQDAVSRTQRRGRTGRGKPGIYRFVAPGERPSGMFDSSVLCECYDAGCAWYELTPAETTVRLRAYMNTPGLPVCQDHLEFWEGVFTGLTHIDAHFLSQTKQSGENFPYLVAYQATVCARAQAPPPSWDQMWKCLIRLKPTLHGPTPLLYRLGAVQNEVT
Procedure: Analysis of the inhibition activation of flNS3 by the inhibitors was performed with the standard assay, allowing the inhibitor to preincubate with NS3 and NS4 for 15 min. prior to addition of substrate.

Compound	Ki
COc1ccc2c(O[C@@H]3C[C@H]4C(=O)N[C@]5(C(=O)O)C[C@H]5/C=C\CCCCC[C@H](NC(=O)OC5CCCC5)C(=O)N4C3)cc(-c3csc(NC(C)C)n3)nc2c1	0.12 nM
CCC(C)[C@H](NC(=O)[C@@H](NC(=O)CCC(=O)O)C1CCCCC1)C(=O)N[C@@H](CC1CCCCC1)C(=O)N[C@@H](CS)C(=O)O (stereo partly specified) [NS3 Protease Inhibitor, 1] (Suc-[Chg][Ile(3ξ)][Cha]C-OH)	330 nM
O=C(O)CCC(=O)N[C@H](C(=O)N[C@@H](CCC(=O)O)C(=O)N[C@@H](Cc1ccc2ccccc2c1)C(=O)N[C@@H](CS)C(=O)O)C1CCCCC1 [NS3 Protease Inhibitor, 2] (Suc-[Chg]E[2Nal]C-OH)	180 nM
O=C(O)CCC(=O)N[C@H](C(=O)N[C@@H](CCC(=O)O)C(=O)N[C@@H](CCC(=O)O)C(=O)N[C@@H](CS)C(=O)O)C(c1ccccc1)c1ccccc1 [NS3 Protease Inhibitor, 3] (Suc-[Dip]EEC-OH)	520 nM
O=C(O)CCC(=O)N[C@H](C(=O)N[C@@H](CCC(=O)O)C(=O)N[C@@H](CC1CCCCC1)C(=O)N[C@@H](CS)C(=O)O)C1CCCCC1 [NS3 Protease Inhibitor, 4] (Suc-[Chg]E[Cha]C-OH)	150 nM
CC(=O)N[C@H](C(=O)N[C@@H](CCC(=O)O)C(=O)N[C@@H](Cc1ccc2ccccc2c1)C(=O)N[C@@H](CS)C(=O)O)C1CCCCC1 [NS3 Protease Inhibitor, 5] (Ac-[Chg]E[2Nal]C-OH)	500 nM
COc1ccc2c(O[C@@H]3C[C@@H](C(=O)NC4(C(=O)O)CC4)N(C(=O)[C@@H](NC(=O)OC(C)(C)C)C(C)C)C3)cc(-c3ccccc3)nc2c1 [NS3 Protease Inhibitor, 6]	1100 nM
C=CC1C[C@]1(NC(=O)[C@@H](NC(=O)C(NC(=O)OC(C)(C)C)C(C)C)c1ccc(Oc2cc(-c3ccccc3)nc3cc(OC)ccc23)cc1)C(=O)NS(=O)(=O)c1ccccc1 (stereo partly specified) [NS3 Protease Inhibitor, 7]	290 nM
CCC[C@H](NC(=O)[C@@H]1C[C@@H](Oc2cc(-c3ccccc3)nc3cc(OC)ccc23)CN1C(=O)[C@@H](NC(=O)OC(C)(C)C)C(C)C)C(=O)NS(=O)(=O)c1ccccc1 [NS3 Protease Inhibitor, 8]	170 nM
C=CC1C[C@]1(NC(=O)[C@@H]1C[C@@H](Oc2cc(-c3ccccc3)nc3cc(OC)ccc23)CN1C(=O)[C@@H](NC(=O)OC(C)(C)C)C(C)C)C(=O)O (stereo partly specified) [NS3 Protease Inhibitor, 9]	15 nM
C=CC1C[C@]1(NC(=O)[C@@H]1C[C@@H](Oc2cc(-c3ccccc3)nc3cc(OC)ccc23)CN1C(=O)[C@@H](NC(=O)OC(C)(C)C)C(C)C)C(=O)NS(=O)(=O)c1ccccc1 (stereo partly specified) [NS3 Protease Inhibitor, 10]	0.22 nM
